# Patent publication US20250361219A1, “SYSTEMS AND METHODS FOR SEPARATION OF CHEMICAL SPECIES, SUCH AS CANNABINOIDS, USING MULTIPLE LIQUID PHASES” (priority 2022, published 2025)
# Like-named read-outs stand apart in the source and are kept apart here.
# Columns and labels:
# [1] = Batch extraction of rac-propranolol with dibutyl L-(+)-tartrate / boric acid, dichloromethane/water; assay type: physicochemical; conditions: for distribution coefficient: dichloromethane with dibutyl-L-tartrate / water with boric acid
# Experimental: One mobile phase was used—a 54/46 v/v methanol/water solution containing 110 mM sodium acetate adjusted to a pH of 6 using glacial acetic acid, 215 mM boric acid, and 285 mM dibutyl L-(+)-tartrate. The flow rate was 0.23 mL/min. The column was heated to 25° C. and the detection was monitored at a wavelength of 275 nm. Samples were diluted 20× in 54/46 v/v methanol/water solution containing 110 mM sodium acetate buffered to a pH of 6 with glacial acetic acid and the injection volume was 10 μL.
# Batch extraction experiments were performed as follows. 2 mL of 1 mg/mL rac-Propranolol in water containing 152.1 mM boric acid was mixed with 2 mL of 152.1 mM dibutyl L-(+)-tartrate in dichloromethane. The solution was vigorously shaken for approximately 2 minutes and allowed to fully settle. 20 μL of each phase were diluted with 380 μL of 110 mM sodium acetate in a 54/46 methanol/water solution buffered to a pH of 6 using glacial acetic acid and the solute concentrations were determined by HPLC.
# [2] = 1,2-Dichloroethane/water (literature), 45x molar excess dibutyl-L-tartrate and boric acid; listed as R/S-PRP; cited from earlier work
# [3] = Literature (10/6/4 DCM/methanol/water ratio); cited from earlier work
# [4] = Current platform (10/5/5 DCM/methanol/water ratio)
# Experimental: Batch extraction experiments were performed as follows. 1 mg of each solute was added to 2 mL of dichloromethane, 1 mL of water, and 1 mL of methanol. The solution was vigorously shaken for around 2 minutes and allowed to fully settle. 100 μL of each phase were diluted with 900 μL of methanol and the solute concentrations were determined by HPLC.
# [5] = Partition coefficients of delta-9- and delta-8-tetrahydrocannabinol in liquid mixtures (Examples 1-9); assay type: physicochemical
# Experimental: The cannabinoid sample contained both delta-9-tetrahydrocannabinol with delta-8-tetrahydrocannabinol. The liquid mixtures included an organic phase as the first liquid phase and a water soluble phase as the second liquid phase. The organic phase and the water soluble phase were in 1:1 volume ratio for all analyses. Various hydrocarbons were evaluated as the organic phase. These hydrocarbons included hexane, heptane, cyclohexane, pentane, 1-hexene, toluene, benzene, 1-octadecene, and dodecane. Various amide based solvents were evaluated as the water soluble phase. These amide based solvents included formamide (F), dimethyl formamide (DMF), methyl formamide (MF), dibutyl formamide (DBF).
# Example 9. A mixture of formamide (F) and dimethyl formamide (DMF) and dibutyl formamide (DBF) at a volume ratio of 1:3:1 (20% F and 60% DMF and 20% DBF) was used as the water soluble phase. Hexane was used as the organic phase. […] The partition coefficients for each component (e.g., delta-9-tetrahydrocannabinol, delta-8-tetrahydrocannabinol) in the liquid mixture were determined by calculating a ratio of the concentration of the component in the water soluble phase over concentration of the component in the organic phase.
smiles,measurement,setting,value
"CC(C)NC[C@@H](O)COc1cccc2ccccc12 [R-PRP, R-propranolol]",distribution coefficient,[1],0.12
CC(C)NCC(O)COc1cccc2ccccc12 (centres unmarked) [R/S-propranolol],Selectivity between enantiomers,"[1]; Dichloromethane/water (experiment), 45x molar excess dibutyl-L-tartrate and boric acid",2.58 ± 0.07
same,Selectivity between enantiomers,[2],2.54±0.13
CC(C)NCC(O)COc1cccc2ccccc12 (centres unmarked) [S-PRP],distribution coefficient,[1],0.30
"COc1cc(C=O)cc(OC)c1O [Syringaldehyde, syringaldehyde]",αx/pHBA (selectivity),[3],17.8
same,αx/pHBA (selectivity),[4],25.5
CCCCCc1cc(O)c2c(c1)OC(C)(C)[C@@H]1CCC(C)=C[C@@H]21 [delta-9-tetrahydrocannabinol],"Kd9,THC/Kd8,THC",[5]; Example 1: F:DMF (9:16) / Hexane,1.47
same,"Kd9,THC/Kd8,THC",[5]; Example 2: F:DMF (9:16) / Heptane,1.45
same,"Kd9,THC/Kd8,THC",[5]; Example 3: F:DMF (9:16) / Cyclohexane,1.48
same,"Kd9,THC/Kd8,THC",[5]; Example 4: F:DMF (9:16) / Pentane,1.36
same,"Kd9,THC/Kd8,THC",[5]; Example 5: F:DMF (9:16) / 1-Hexene,1.37
same,"Kd9,THC/Kd8,THC",[5]; Example 6: F:DMF (1:1) / Dodecane,1.39
same,"Kd9,THC/Kd8,THC",[5]; Example 7: F:MF (1:1) / Hexane,1.20
same,"Kd9,THC/Kd8,THC",[5]; Example 8: F:MF (2:3) / Hexane,1.23
same,"Kd9,THC/Kd8,THC",[5]; Example 9: F:DMF:DBF (1:3:1) / Hexane,1.39
"O=C(O)c1ccc(O)cc1 [pHBA, para-hydroxybenzoic acid]",αx/pHBA (selectivity),[3],1.00
same,αx/pHBA (selectivity),[4],1.00
